Experimental data: patent publication US6509377B1, “Use of a 2-hydroxy-4-trifluoromethylbenzoic acid derivatives as inhibitors of the activation of the nuclear transcription factor NF-κB” (J. Uriach & Cia, S.A., priority 1999, dated 2003)

Key:
[1] = test system: cocultures of rat neurons and astrocytes; assay: Neuronal cell death in cocultures of neurons and astrocytes induced by oxygen-glucose deprivation (OGD); format: cell-based; conditions: 4 h OGD, 24-hour recovery; triflusal 10 and 30 μg/ml; HTB 20 and 100 μg/ml
Experimental: To carry out this study, an in vitro model of neuronal ischemia based on cocultures of neurons and glial cells was used. Primary cultures of type 1 astrocytes were prepared from 1-day old Wistar rats. Astrocytes were plated onto 60 mm, poly-D-lysine-coated plates. These cells were allowed to grow until they were confluent (about 11 days) and then rat primary neurons were plated onto them and were allowed to grow for 10 days. In addition, separate cultures of each one of the two types of cells were prepared.
Half of the cultures were exposed for four hours to oxygenlucose deprivation (OGD), followed by a 24-hour recovery period. Both the cells exposed to OGD and control cells, were treated at the start of OGD with 0, 10 and 30 μg/ml triflusal in a series of experiments and with 0, 20 and 100 μg/ml HTB in another series. After the 24-hour recovery period, the release of lactate dehydrogenase (LDH) into the medium was determined as a measure of cellular death, as well as the degree of apoptosis in the cultures (using the TUNEL assay) and total neuron and astrocyte counts present in the coculture (using Hoescht staining).

[2] = test system: VCAM-1; assay: Expression of VCAM-1 mRNA induced by TNF-α in HUVEC (RT-PCR); format: cell-based, human; conditions: 4 mM, TNF-α 100 U/ml, one hour
Source text: Primers used for the detection of VCAM-1 mRNA by RT-PCR were designed from the human gene sequence (EMBUGenBank AC: M30257), using the Wisconsin Package Version 9.1, Genetics Computer Group (GCG), Madison, Wis. Their sequences were 5′-TGTCACTGTMGCTGCMG-3′ and 5′-TTCCAGCCTGGTTAATTC-3′, corresponding to nucleotides 1090-1108 and 1589-1572 (L. Osbom et al., Cell 1989, 59(6), 1203-1211). Total RNA was extracted from cultured cells using the guanidium isothiocyanate method (P. Chomczynski and N. Sacchi, Anal Biochem. 1987, 162(1), 156-159). cDNA first strand was synthesized from total RNA by reverse transcription reaction. […] The relative amounts of each amplified cDNA were determined by measuring the density of the bands stained with ethidium bromide using the Gel Doc documentation system and the Molecular Analyst software from Bio-Rad Laboratories, Hercules, Calif. […]
Specifically, the effect of Triflusal (4 mM) and HTB (4 mM) on the regulation of the expression of VCAM-1 mRNA induced by TNF-α (100 U/ml) in HUVEC was studied. […] The PCR products were separated by electrophoresis in a 1.8% agarose gel and were later quantified. The molecular weight of the amplification products was determined from the electrophoretic migration of DNA size standards.

[3] = test system: NF-κB; assay: Activation of NF-κB induced by immune complexes in rat peritoneal macrophages (EMSA); format: cell-based; conditions: 4 mM, 100 μg/ml IgG/ovalbumin, 2 hours
Experimental: Rat peritoneal cavity cells were extracted and resuspended in DMEM culture medium in the absence of serum previously supplemented with 100 U/ml penicillin, 100 μg/ml streptomycin, 50 μg/ml gentamycin, 2 mM glutamine and 0.5 mM L-arginine. Cells were incubated for 2 hours in culture plates at 37° C. and those which had not adhered to the plates were removed by washing three times with the same fresh medium. More than 95% of the adherent cells were macrophages, as assessed by their ability to engulf zymosan particles and nonspecific esterase staining. Macrophages were kept at 37° C. under a 5% CO2 atmosphere and two hours later non-adherent cells were removed and the peritoneal macrophages adhered to the plates were incubated with 100 μg/ml IgG/ovalbumin immune complexes prepared from; rabbit antiserum for 2 hours in the presence or absence (vehicle) of triflusal or HTB (4 mM, both).
After incubation, macrophages were washed twice with PBS and the degree of activation (binding to DNA) of the transcription factor NF-κB was determined using the EMSA assay, described in detail in Example 1.

Compound	increase in LDH release induced by OGD [1]	increase in number of apoptotic neurons induced by OGD (TUNEL) [1]	inhibition of the expression of VCAM-1 mRNA induced by TNF-α [2]	inhibition of the activation of NF-κB induced by immune complexes [3]
O=C(O)c1ccc(C(F)(F)F)cc1O [HTB, 2-hydroxy-4-trifluoromethylbenzoic acid]	completely inhibited	completely inhibited	completely inhibit	markedly inhibit
CC(=O)Oc1cc(C(F)(F)F)ccc1C(=O)O [triflusal, 2-Acetyloxy-4-trifluoromethylbenzoic acid, reference compound]	completely inhibited	completely inhibited	completely inhibit	markedly inhibit
